Patent US10080366B2, “Agent for increasing sugar content in fruit” (RIKEN, priority 2012, dated 2018)
Like-named read-outs stand apart in the source and are kept apart here.

What was measured:
[1] = tested on: harvested fruit of grape (variety: Barikan); details: for Sugar content (%) on date of application (Jun. 2): before application
Experimental: The fruit of grape was maintained in an air-conditioned greenhouse (temperature: 25° C.), and measured for the mass over time. The sugar content of the fruit was measured before the application and 8 days after the application with a sugar content meter. Next, on the assumption that the change in the mass of the fruit was entirely due to the change in water content, calculated values of the amount of decrease in mass and the sugar content on the date (June 2) of the application were determined […] by using the following calculation formula. (Calculated as follows: the sugar content (%) calculated value))=the sugar content (%) before application×the mass (g) on the date of application/the mass (g) on the date of measurement))

[2] = tested on: fruit of grape (variety: Red Globe)
Experimental: Agents for increasing a sugar content in a fruit (containing Sorbon T-20 as a spreader/sticker at a final concentration of 200 μL/L) diluted with water to have the concentrations of potassium hydrogen carbonate shown in Table 4 were prepared. The mass of fruit of grape (variety: Red Globe) purchased on the market was measured. Then, the prepared agents for increasing a sugar content in a fruit were applied by spraying to the fruit of grape, which was then allowed to stand in an air-conditioned greenhouse (temperature: 25° C.). The mass of the fruit of grape was measured over time (date of application: Mar. 10, 2011). In addition, as a control, the mass of untreated grape was measured on each date of measurement in the same manner. […] Note that the decrease ratio (cumulative, %) represents the percentage (%) of the mass decreased from the date of application to each of the dates of measurement, and the decrease ratio (%/day) represents the average ratio (%) of decrease in mass in a period between each of the dates of measurement and the preceding date of measurement (=(the mass (g) on the preceding date of measurement of each of the dates of measurement−the mass (g) on the date of measurement)/the mass (g) on the preceding date of measurement of the date of measurement/the number of days from the preceding date of measurement of the date of measurement to the date of measurement×100).

[3] = tested on: Cherry (Sato Nishiki); details: 10 g/L, three times at intervals of one week; harvested four weeks later
Experimental: (§1) To each of the plants shown in Table 15 below, an aqueous potassium hydrogen carbonate solution (10 g/L) was applied three times at intervals of one week about one month before the harvest time. Each of the plants was harvested four weeks later. The degree of the fruit cracking of the fruit was compared with that of untreated fruit, and a fruit cracking-suppression ratio was determined. […] The fruit cracking ratio (%)=the number of pieces of the fruit which underwent fruit cracking/the total number of pieces of the fruit×100 The fruit cracking-suppression ratio (%)=(1−the fruit cracking ratio (%) of a treated group/the fruit cracking ratio (%) of an untreated group)×100

[4] = tested on: Grape (Nagano Purple), Grape (Riesling); details: 10 g/L, three times at intervals of one week
Experimental: as §1

[5] = tested on: Tomato (Regina); details: 10 g/L, three times at intervals of one week
Experimental: as §1

[6] = tested on: fruit of trellised grape (variety: Pinot noir)
Experimental: To fruit of trellised grape (variety: Pinot noir), an aqueous potassium hydrogen carbonate solution (20 g/L) was applied three times at intervals of one week. The fruit was harvested 21 days after the first application, and the sugar content, acidity, and amino acid concentration were measured. In addition, the harvested fruit was kept in an air-conditioned greenhouse (25° C.) for 10 days, and the drying state of the fruit was observed.

[7] = 10 g/L, 25° C., mass 100 g on date of application

O=C([O-])O.[K+] [Potassium hydrogen carbonate, potassium hydrogen carbonate]
decrease of mass of fruit in 8 days (June 2 to June 10) ([1]; 10 g/L): 27.3%
Sugar content (%) 8 days later, actually measured value ([1]; 10 g/L, 25° C.): 24.0%
Sugar content (%) 8 days later, actually measured value ([1]; 10 g/L, 25° C., listed as potassium hydrogen carbonate): 24%
Mass (g) 6 days later (Jun. 8) [1, 7]: 79.4 g
Mass (g) 8 days later (Jun. 10) [1, 7]: 72.7 g
Sugar content (%) 8 days later, calculated value ([1]; 10 g/L, calculated from decrease in mass): 24.8%
Sugar content (%) on date of application (Jun. 2) [1]: 18.0%
Sugar content (%) on date of application (Jun. 2) ([1]; listed as potassium hydrogen carbonate): 18%
ratio of decrease in mass compared with untreated ([2]; 5 g/L and 10 g/L): higher ratios of decrease in mass than the untreated fruit
Mass ([2]; 5 g/L, Mar. 10 (date of application)): 240.4 g
Decrease ratio (%/day) ([2]; 5 g/L, Mar. 11): 2.6 %/day
Decrease ratio (cumulative %) ([2]; 5 g/L, Mar. 11): 2.6%
Mass ([2]; 5 g/L, Mar. 11): 234.1 g
Decrease ratio (%/day) ([2]; 5 g/L, Mar. 14): 2.5 %/day
Decrease ratio (cumulative %) ([2]; 5 g/L, Mar. 14): 9.9%
Mass ([2]; 5 g/L, Mar. 14): 216.7 g
Decrease ratio (%/day) ([2]; 5 g/L, Mar. 15): 2.5 %/day
Decrease ratio (cumulative %) ([2]; 5 g/L, Mar. 15): 12.1%
Mass ([2]; 5 g/L, Mar. 15): 211.4 g
Decrease ratio (%/day) ([2]; 5 g/L, Mar. 16): 2.2 %/day
Decrease ratio (cumulative %) ([2]; 5 g/L, Mar. 16): 14.0%
Mass ([2]; 5 g/L, Mar. 16): 206.7 g
Decrease ratio (%/day) ([2]; 5 g/L, Mar. 18): 2.1 %/day
Decrease ratio (cumulative %) ([2]; 5 g/L, Mar. 18): 17.7%
Mass ([2]; 5 g/L, Mar. 18): 197.8 g
Decrease ratio (%/day) ([2]; 5 g/L, Mar. 22): 2.0 %/day
Decrease ratio (cumulative %) ([2]; 5 g/L, Mar. 22): 24.1%
Mass ([2]; 5 g/L, Mar. 22): 182.4 g
Decrease ratio (%/day) ([2]; 5 g/L, Mar. 23): 2.8 %/day
Decrease ratio (cumulative %) ([2]; 5 g/L, Mar. 23): 26.3%
Mass ([2]; 5 g/L, Mar. 23): 177.3 g
Decrease ratio (%/day) ([2]; 5 g/L, Mar. 24): 2.2 %/day
Decrease ratio (cumulative %) ([2]; 5 g/L, Mar. 24): 27.8%
Mass ([2]; 5 g/L, Mar. 24): 173.5 g
Decrease ratio (%/day) ([2]; 5 g/L, Mar. 30): 2.3 %/day
Decrease ratio (cumulative %) ([2]; 5 g/L, Mar. 30): 37.8%
Mass ([2]; 5 g/L, Mar. 30): 149.4 g
Mass ([2]; 10 g/L, Mar. 10 (date of application)): 200.5 g
Decrease ratio (%/day) ([2]; 10 g/L, Mar. 11): 2.9 %/day
Decrease ratio (cumulative %) ([2]; 10 g/L, Mar. 11): 2.9%
Mass ([2]; 10 g/L, Mar. 11): 194.8 g
Decrease ratio (%/day) ([2]; 10 g/L, Mar. 14): 3 %/day
Decrease ratio (cumulative %) ([2]; 10 g/L, Mar. 14): 11.6%
Mass ([2]; 10 g/L, Mar. 14): 177.2 g
Decrease ratio (%/day) ([2]; 10 g/L, Mar. 15): 3.3 %/day
Decrease ratio (cumulative %) ([2]; 10 g/L, Mar. 15): 14.5%
Mass ([2]; 10 g/L, Mar. 15): 171.4 g
Decrease ratio (%/day) ([2]; 10 g/L, Mar. 16): 2.9 %/day
Decrease ratio (cumulative %) ([2]; 10 g/L, Mar. 16): 17.0%
Mass ([2]; 10 g/L, Mar. 16): 166.5 g
Decrease ratio (%/day) ([2]; 10 g/L, Mar. 18): 2.7 %/day
Decrease ratio (cumulative %) ([2]; 10 g/L, Mar. 18): 21.5%
Mass ([2]; 10 g/L, Mar. 18): 157.4 g
Decrease ratio (%/day) ([2]; 10 g/L, Mar. 22): 2.5 %/day
Decrease ratio (cumulative %) ([2]; 10 g/L, Mar. 22): 29.5%
Mass ([2]; 10 g/L, Mar. 22): 141.3 g
Decrease ratio (%/day) ([2]; 10 g/L, Mar. 23): 3.6 %/day
Decrease ratio (cumulative %) ([2]; 10 g/L, Mar. 23): 32.0%
Mass ([2]; 10 g/L, Mar. 23): 136.3 g
Decrease ratio (%/day) ([2]; 10 g/L, Mar. 24): 2.8 %/day
Decrease ratio (cumulative %) ([2]; 10 g/L, Mar. 24): 33.9%
Mass ([2]; 10 g/L, Mar. 24): 132.5 g
Decrease ratio (%/day) ([2]; 10 g/L, Mar. 30): 2.9 %/day
Decrease ratio (cumulative %) ([2]; 10 g/L, Mar. 30): 45.3%
Mass ([2]; 10 g/L, Mar. 30): 109.7 g
Fruit cracking-suppression ratio [3]: 98%
Fruit cracking-suppression ratio ([4]; Nagano Purple): 97%
Fruit cracking-suppression ratio ([4]; Riesling): 98%
Fruit cracking-suppression ratio [5]: 95%
Acidity ([6]; 20 g/L x3, at harvest): 0.8
Amino acid concentration ([6]; 20 g/L x3, at harvest): 2800 µg/L
State 10 days after harvest (drying state) ([6]; 20 g/L x3, kept in greenhouse (25° C.) for 10 days): dried faster than the untreated grape
Sugar content (%) ([6]; 20 g/L, three times at intervals of one week, at harvest, 21 days after first application): 46%
